This passage reports TGI results from PubChem BioAssay (NCI).

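Compound exposure: 48 hours, 5 concentrations, 96-well plates. Definition used: TGI = concentration required for complete inhibition of growth.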 Where a SMILES comes first, the peptide text is derived from it. The star is where a group is joined. Boc = CC(C)(C)OC(=O)*

Among the test systems are COLO 205 colon; K-562 leukemia; MDA-MB-435; SW-620 colon; TK-10 renal; U251 CNS; UO-31 renal; OVCAR-5 ovarian.
Common to all, as to test: NCI anticancer screen, dose series, 48 h

Consider `Cc1ccc(S(=O)(=O)N2CCCSCC2)cc1`, for which the TGI in the test on COLO 205 colon, in the test on K-562 leukemia, in the test with MDA-MB-435, in the test on SW-620 colon, in the test on TK-10 renal and in the test on U251 CNS was > 100 µM each time. In the test with UO-31 renal, the TGI was > 100 µM.
Consider `Cc1ccc2c(c1)-c1nc(N)c(C#N)c(-c3ccccc3)c1CCS2(=O)=O`, for which the TGI was > 100 µM in the test with COLO 205 colon; > 100 µM in the test on K-562 leukemia; > 100 µM in the test on MDA-MB-435; > 100 µM with OVCAR-5 ovarian; > 100 µM in the test with SW-620 colon; 61 µM with TK-10 renal. The TGI in the test on U251 CNS and with UO-31 renal was > 100 µM throughout.
As to `CC(=O)OCC1OC(n2c(-c3ccc(C)cc3)cc(-c3ccccc3)c(C#N)c2=S)C(OC(C)=O)C(OC(C)=O)C1OC(C)=O` (stereo not drawn), the TGI with COLO 205 colon, with K-562 leukemia, in the test with MDA-MB-435, in the test on OVCAR-5 ovarian, in the test on SW-620 colon and with TK-10 renal was > 100 µM in each case. The TGI with U251 CNS and in the test on UO-31 renal was > 100 µM throughout.
On to `CC(C)(C)OC(=O)N1C(c2cccnc2)=CC[C@H]2C3CC=C(c4cccnc4)[C@@]3(C)CC[C@@H]21` (stereo partly drawn), for which the TGI amounted to 3.19 µM in the test on COLO 205 colon; 38.6 µM in the test with K-562 leukemia; 5.7 µM with MDA-MB-435; 28.6 µM in the test with OVCAR-5 ovarian; 15.8 µM in the test with SW-620 colon; 19.7 µM in the test with TK-10 renal. Moreover, the values for the TGI with U251 CNS and with UO-31 renal were 12 µM and 17.3 µM, respectively.
Consider `COc1cc(CNNC(N)=S)cc(OC)c1OC`, for which the TGI in the test with COLO 205 colon, in the test on K-562 leukemia, with MDA-MB-435, in the test with OVCAR-5 ovarian, in the test with SW-620 colon and with TK-10 renal was > 100 µM each time. The TGI in the test on U251 CNS and in the test with UO-31 renal was > 100 µM throughout.
With `COC(=O)C(Cc1c[nH]c2ccccc12)NC(=O)C(Cc1c[nH]c2ccccc12)NC(=O)C(Cc1c[nH]c2ccccc12)NC(=O)C(Cc1c[nH]c2ccccc12)NC(=O)C(Cc1c[nH]c2ccccc12)NC(=O)C(Cc1c[nH]c2ccccc12)NC(=O)C(Cc1c[nH]c2ccccc12)NC(=O)C(Cc1c[nH]c2ccccc12)NC(=O)OC(C)(C)C` (stereo not drawn) (Boc-WWWWWWWW-OMe; configuration not given here), the TGI with K-562 leukemia, in the test with MDA-MB-435, in the test on OVCAR-5 ovarian, in the test with SW-620 colon, in the test with TK-10 renal and with U251 CNS was > 100 µM throughout. For the same compound, in the test on UO-31 renal, the TGI was > 100 µM.
As to `Cc1cc(S(=O)(=O)Nc2nc3ccccc3c(=O)n2N)c(S)cc1Cl`, the TGI with COLO 205 colon, in the test with K-562 leukemia, in the test on MDA-MB-435, in the test with OVCAR-5 ovarian, in the test on SW-620 colon and with TK-10 renal was > 100 µM throughout. For the same compound, the TGI in the test with U251 CNS is > 100 µM.
For `O=C1c2ccccc2C(=O)N1CC(O)COc1cccc2ccccc12` (stereo not drawn), the TGI in the test with COLO 205 colon, in the test on K-562 leukemia, in the test with MDA-MB-435, with OVCAR-5 ovarian, with SW-620 colon and in the test with TK-10 renal was > 100 µM throughout. The TGI with U251 CNS and in the test on UO-31 renal was > 100 µM in each case.
In the case of `Cn1c2ccccc2c(=O)c2cccc(C(=O)NC(CCC(N)=O)C(=O)O)c21` (stereo not drawn), the TGI with COLO 205 colon, with K-562 leukemia, with MDA-MB-435, in the test with OVCAR-5 ovarian, in the test on SW-620 colon and in the test on TK-10 renal was > 100 µM throughout. Moreover, the TGI with U251 CNS was > 100 µM.
On to `O=C(NCCCCCCNC(=O)c1cc(-c2ccccc2)nc2ccccc12)c1cc(-c2ccccc2)nc2ccccc12`, for which the TGI in the test on COLO 205 colon, in the test with K-562 leukemia, with MDA-MB-435, with OVCAR-5 ovarian, in the test with SW-620 colon and in the test with TK-10 renal was > 100 µM throughout. Besides, the TGI with U251 CNS and in the test on UO-31 renal was > 100 µM throughout.
Turning to `Cc1cn(CC2=NCC(C)N2)c(=O)[nH]c1=O` (stereo not drawn), the TGI in the test on COLO 205 colon, in the test with K-562 leukemia, in the test on OVCAR-5 ovarian, in the test on SW-620 colon, with TK-10 renal and with U251 CNS was > 100 µM throughout. Besides, the TGI in the test with UO-31 renal was > 100 µM.
For the compound `CC1=C(C(=O)Nc2ccccc2)C2(CCCCC2)C(C#N)=C(SCC(=O)Nc2ccc(Br)cc2)N1`, the TGI is 4.53 µM in the test on COLO 205 colon; 23 µM in the test on K-562 leukemia; 29.6 µM in the test on MDA-MB-435; 14.6 µM with OVCAR-5 ovarian; > 100 µM with SW-620 colon; > 45.4 µM in the test on TK-10 renal. Also, the values for the TGI in the test with U251 CNS and in the test on UO-31 renal were 15.3 µM and 2.76 µM, respectively.
As for `Cc1ccc(NC(=O)c2cc(S(=O)(=O)Nc3nc4ncccc4[nH]3)c(SSc3cc(Cl)c(C(=O)Nc4ccc(C)cc4)cc3S(=O)(=O)Nc3nc4ncccc4[nH]3)cc2Cl)cc1`, the TGI with COLO 205 colon, in the test on K-562 leukemia, in the test with MDA-MB-435, in the test with OVCAR-5 ovarian, in the test on SW-620 colon and in the test with TK-10 renal was > 100 µM in each case. The TGI with U251 CNS and in the test with UO-31 renal was > 100 µM each time.
As for `COCN1C(=O)[C@@H]2CCCN2C(=O)c2cc(N)ccc21`, the TGI in the test with COLO 205 colon is 8.86 µM; in the test with MDA-MB-435 it was > 100 µM; in the test with OVCAR-5 ovarian, > 100 µM; with SW-620 colon, > 100 µM; in the test with TK-10 renal, > 100 µM; with U251 CNS it was > 100 µM. For the same compound, in the test on UO-31 renal, the TGI is > 100 µM.
In the case of `COC(=O)C(CCSC)NC(=O)Cc1ccc(C(=O)c2ccccc2)cc1` (stereo not drawn), the TGI in the test on COLO 205 colon is > 100 µM; in the test on K-562 leukemia, > 100 µM; in the test with MDA-MB-435, 93.6 µM; with OVCAR-5 ovarian, > 100 µM; with SW-620 colon, > 100 µM; in the test with U251 CNS it was > 100 µM. In addition, the TGI in the test on UO-31 renal is > 100 µM.
